Measured values taken from BindingDB's records for doi:10.1016/j.bmcl.2017.05.024 (Yeungnam University, 2017).

target: Hypoxia-inducible factor 1-alpha (Homo sapiens, UniProt Q16665); test: ChEBML_1685544
Excerpt: Inhibition of hypoxia-induced HIF1alpha (unknown origin) transcriptional activity expressed in human HCT116 cells by HRE luciferase reporter gene assay

Chain of Hypoxia-inducible factor 1-alpha (Q16665 whole entry): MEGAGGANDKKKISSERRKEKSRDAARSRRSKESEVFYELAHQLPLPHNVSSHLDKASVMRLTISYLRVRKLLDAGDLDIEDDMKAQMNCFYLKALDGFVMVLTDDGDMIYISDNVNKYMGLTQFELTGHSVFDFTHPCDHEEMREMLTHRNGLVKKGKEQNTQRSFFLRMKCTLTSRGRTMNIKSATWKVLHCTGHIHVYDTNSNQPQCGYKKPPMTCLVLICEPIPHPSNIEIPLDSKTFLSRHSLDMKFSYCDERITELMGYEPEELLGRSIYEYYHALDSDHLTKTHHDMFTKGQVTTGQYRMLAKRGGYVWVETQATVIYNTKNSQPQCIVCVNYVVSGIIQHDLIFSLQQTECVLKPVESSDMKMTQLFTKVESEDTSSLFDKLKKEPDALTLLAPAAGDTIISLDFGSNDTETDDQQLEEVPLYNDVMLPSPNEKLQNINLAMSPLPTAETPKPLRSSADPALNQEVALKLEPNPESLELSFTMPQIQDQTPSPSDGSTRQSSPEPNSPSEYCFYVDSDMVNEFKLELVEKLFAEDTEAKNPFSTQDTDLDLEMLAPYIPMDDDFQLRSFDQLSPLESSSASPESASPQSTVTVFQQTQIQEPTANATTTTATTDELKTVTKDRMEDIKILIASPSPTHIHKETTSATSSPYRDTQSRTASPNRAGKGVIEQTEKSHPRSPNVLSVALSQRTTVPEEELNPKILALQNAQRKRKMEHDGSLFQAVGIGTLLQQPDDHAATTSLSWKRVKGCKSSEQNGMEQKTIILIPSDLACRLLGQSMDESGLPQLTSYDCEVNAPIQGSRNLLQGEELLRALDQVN

IC50 | SMILES
0.6 µM | CO/N=C(/C(=O)OC)c1ccccc1COc1cccc(OCc2ccc(Cl)cc2)c1
4.52 µM | CO/N=C(\C)c1cccc(OCc2ccccc2/C(=N\OC)C(=O)OC)c1
9.16 µM | CO/N=C(/C(=O)OC)c1ccccc1COc1cccc(O)c1
0.87 µM | C=Cc1ccc(COc2cccc(OCc3ccccc3/C(=N\OC)C(=O)OC)c2)cc1
1.12 µM | CO/N=C(/C(=O)OC)c1ccccc1COc1cccc(OCc2ccccc2)c1
0.94 µM | CO/N=C(/C(=O)OC)c1ccccc1COc1cccc(OCc2cc(C(F)(F)F)cc(C(F)(F)F)c2)c1
3.4 µM | CO/N=C/c1cccc(OCc2ccccc2/C(=N\OC)C(=O)OC)c1
> 20 µM | CO/N=C(/C(=O)OC)c1ccccc1COc1cccc(OCC#N)c1
14.9 µM | CO/N=C/c1ccc(OC)c(OCc2ccccc2/C(=N\OC)C(=O)OC)c1
